Measured values reported in ChEMBL document CHEMBL3616410, “Linked pyridinyl-thiadiazoles: Design and synthesis as potential candidate for treatment of XDR and MDR tuberculosis” (Eur J Med Chem, 2015).
In brackets after ≈: the same amount, converted by molar mass.

Assays:
[1] = tested on: Mycobacterium tuberculosis; experiment: Bactericidal activity against Mycobacterium tuberculosis H37Rv ATCC 27294 after 5 days by spectrophotometry; type: functional
[2] = tested on: Mycobacterium tuberculosis; experiment: Antimycobacterial activity against Mycobacterium tuberculosis H37Rv ATCC 27294 after 5 days by spectrophotometry; type: functional; conditions: H37Rv ATCC 27294, 120 h
[3] = Cytotoxicity against human HepG2 cells after 3 days; type: cell-based
[4] = Cytotoxicity against hamster BHK21 cells after 3 days; type: cell-based, Mesocricetus auratus, BHK-21
[5] = tested on: Mycobacterium tuberculosis; experiment: Antimycobacterial activity against Mycobacterium tuberculosis TN4259 after 5 days by spectrophotometry; type: functional; conditions: TN4259, 120 h
[6] = tested on: Mycobacterium tuberculosis; experiment: Antimycobacterial activity against Mycobacterium tuberculosis TN1051 after 5 days by spectrophotometry; type: functional; conditions: TN1051, 120 h
[7] = tested on: Mycobacterium tuberculosis; experiment: Antimycobacterial activity against Mycobacterium tuberculosis W4 after 5 days by spectrophotometry; type: functional; conditions: W4, 120 h
[8] = tested on: Mycobacterium tuberculosis; experiment: Antimycobacterial activity against Mycobacterium tuberculosis TN3183 after 5 days by spectrophotometry; type: functional; conditions: TN3183, 120 h
[9] = tested on: Mycobacterium tuberculosis; experiment: Antimycobacterial activity against Mycobacterium tuberculosis TN1037 after 5 days by spectrophotometry; type: functional; conditions: TN1037, 120 h
[10] = tested on: Mycobacterium tuberculosis; experiment: Antimycobacterial activity against Mycobacterium tuberculosis TN2524 after 5 days by spectrophotometry; type: functional; conditions: TN2524, 120 h
[11] = tested on: Mycobacterium tuberculosis; experiment: Antimycobacterial activity against Mycobacterium tuberculosis E8133 after 5 days by spectrophotometry; type: functional; conditions: E8133, 120 h
[12] = tested on: Mycobacterium tuberculosis; experiment: Antimycobacterial activity against Mycobacterium tuberculosis TN3979 after 5 days by spectrophotometry; type: functional; conditions: TN3979, 120 h
[13] = tested on: Mycobacterium tuberculosis; experiment: Antimycobacterial activity against Mycobacterium tuberculosis TN1082 after 5 days by spectrophotometry; type: functional; conditions: TN1082, 120 h
[14] = tested on: Mycobacterium tuberculosis; experiment: Antimycobacterial activity against Mycobacterium tuberculosis TN1008 after 5 days by spectrophotometry; type: functional; conditions: TN1008, 120 h
[15] = tested on: Mycobacterium tuberculosis; experiment: Antimycobacterial activity against Mycobacterium tuberculosis TN1040 after 5 days by spectrophotometry; type: functional; conditions: TN1040, 120 h
[16] = tested on: Mycobacterium tuberculosis; experiment: Antimycobacterial activity against Mycobacterium tuberculosis TN675 after 5 days by spectrophotometry; type: functional; conditions: TN675, 120 h
[17] = tested on: Mycobacterium tuberculosis; experiment: Antimycobacterial activity against Mycobacterium tuberculosis AH9584 after 5 days by spectrophotometry; type: functional; conditions: AH9584, 120 h
[18] = tested on: Mycobacterium tuberculosis; experiment: Antimycobacterial activity against Mycobacterium tuberculosis BE11677 after 5 days by spectrophotometry; type: functional; conditions: BE11677, 120 h
[19] = tested on: Mycobacterium tuberculosis; experiment: Antimycobacterial activity against Mycobacterium tuberculosis TN913 after 5 days by spectrophotometry; type: functional; conditions: TN913, 120 h
[20] = tested on: Mycobacterium tuberculosis; experiment: Antimycobacterial activity against Mycobacterium tuberculosis TN2351 after 5 days by spectrophotometry; type: functional; conditions: TN2351, 120 h
[21] = tested on: Mycobacterium tuberculosis; experiment: Antimycobacterial activity against Mycobacterium tuberculosis TN994 after 5 days by spectrophotometry; type: functional; conditions: TN994, 120 h

Row | Structure (SMILES) | MBC90 [1] | MIC50 [2] | CC50 at 72 h [3] | CC50 at 72 h [4] | other results
1 | O=C(CSc1nnc(-c2ccncc2)s1)Nc1ccccc1 | 1.25 µM (≈ 0.411 µg/mL) | 0.18 µM (≈ 0.0591 µg/mL) | 15.2 µM | 16.2 µM | 
2 | O=C(CSc1nnc(-c2ccncc2)s1)NCc1ccccc1 | 1.25 µM (≈ 0.428 µg/mL) | 0.19 µM (≈ 0.0651 µg/mL) | 17.7 µM | 11.3 µM | 
3 | O=C(CSc1nnc(-c2ccncc2)s1)NCc1ccccc1Cl |  | 9.67 µM (≈ 3.64 µg/mL) |  |  | 
4 | O=C(CSc1nnc(-c2ccncc2)s1)NCc1ccc(Cl)cc1 |  | 11.7 µM (≈ 4.42 µg/mL) | > 50 µM | > 50 µM | 
5 | O=C(CSc1nnc(-c2ccncc2)s1)Nc1ccccc1Cl |  | 8.52 µM (≈ 3.09 µg/mL) | > 50 µM | > 50 µM | 
6 | O=C(CSc1nnc(-c2ccncc2)s1)Nc1ccc(Cl)cc1 |  | 6.81 µM (≈ 2.47 µg/mL) | > 50 µM | > 50 µM | 
7 | O=C(CSc1nnc(-c2ccncc2)s1)Nc1c(Cl)cccc1Cl |  | > 20 µM |  |  | 
8 | O=C(CSc1nnc(-c2ccncc2)s1)Nc1ccc(Cl)cc1Cl |  | > 20 µM |  |  | 
9 | CC(Sc1nnc(-c2ccncc2)s1)C(=O)Nc1ccccc1 (stereo unspecified) | 5 µM (≈ 1.71 µg/mL) | 1.48 µM (≈ 0.507 µg/mL) | > 50 µM | > 50 µM | 
10 | CC(Sc1nnc(-c2ccncc2)s1)C(=O)NCc1ccccc1 (stereo unspecified) | 5 µM (≈ 1.78 µg/mL) | 1.15 µM (≈ 0.41 µg/mL) | > 50 µM | > 50 µM | 
11 | CC(Sc1nnc(-c2ccncc2)s1)C(=O)NCc1ccccc1Cl (stereo unspecified) | 5 µM (≈ 1.95 µg/mL) | 1.26 µM (≈ 0.493 µg/mL) | > 50 µM | > 50 µM | 
12 | CC(Sc1nnc(-c2ccncc2)s1)C(=O)NCc1ccc(Cl)cc1 (stereo unspecified) |  | > 20 µM |  |  | 
13 | CC(Sc1nnc(-c2ccncc2)s1)C(=O)Nc1ccccc1Cl (stereo unspecified) | 5 µM (≈ 1.88 µg/mL) | 1.04 µM (≈ 0.392 µg/mL) | > 50 µM | > 50 µM | 
14 | CC(Sc1nnc(-c2ccncc2)s1)C(=O)Nc1ccc(Cl)cc1 (stereo unspecified) | 1.25 µM (≈ 0.471 µg/mL) | 0.12 µM (≈ 0.0452 µg/mL) | > 50 µM | > 50 µM | 
15 | CC(Sc1nnc(-c2ccncc2)s1)C(=O)Nc1c(Cl)cccc1Cl (stereo unspecified) | 5 µM (≈ 2.06 µg/mL) | 1.19 µM (≈ 0.489 µg/mL) | > 50 µM | > 50 µM | 
16 | CC(Sc1nnc(-c2ccncc2)s1)C(=O)Nc1ccc(Cl)cc1Cl (stereo unspecified) | 5 µM (≈ 2.06 µg/mL) | 2.45 µM (≈ 1.01 µg/mL) | > 50 µM | > 50 µM | 
17 | O=C(CCSc1nnc(-c2ccncc2)s1)Nc1ccccc1 | 2.5 µM (≈ 0.856 µg/mL) | 0.61 µM (≈ 0.209 µg/mL) | > 50 µM | > 50 µM | 

Row | Structure (SMILES) | MBC90 [1] | MIC50 [2] | CC50 at 72 h [3] | CC50 at 72 h [4] | other results
18 | O=C(CCSc1nnc(-c2ccncc2)s1)NCc1ccccc1 | 2.5 µM (≈ 0.891 µg/mL) | 0.67 µM (≈ 0.239 µg/mL) | 14 µM | 18.7 µM | 
19 | O=C(CCSc1nnc(-c2ccncc2)s1)NCc1ccccc1Cl | 2.5 µM (≈ 0.977 µg/mL) | 0.65 µM (≈ 0.254 µg/mL) | > 50 µM | > 50 µM | 
20 | O=C(CCSc1nnc(-c2ccncc2)s1)NCc1ccc(Cl)cc1 | 2.5 µM (≈ 0.977 µg/mL) | 0.63 µM (≈ 0.246 µg/mL) | 15.6 µM | 21.5 µM | 
21 | O=C(CCSc1nnc(-c2ccncc2)s1)Nc1ccccc1Cl | 2.5 µM (≈ 0.942 µg/mL) | 0.62 µM (≈ 0.234 µg/mL) | > 50 µM | > 50 µM | 
22 | O=C(CCSc1nnc(-c2ccncc2)s1)Nc1ccc(Cl)cc1 | 1.25 µM (≈ 0.471 µg/mL) | 0.07 µM (≈ 0.0264 µg/mL) | 7.26 µM | 8.21 µM | MIC [5]: 0.06 µg/mL (≈ 0.159 µM); MIC [6]: 0.06 µg/mL (≈ 0.159 µM); MIC [7]: 0.06 µg/mL (≈ 0.159 µM); MIC [8]: 0.06 µg/mL (≈ 0.159 µM); MIC [9]: 0.06 µg/mL (≈ 0.159 µM); MIC [10]: 0.25 µg/mL (≈ 0.663 µM); MIC [11]: 0.13 µg/mL (≈ 0.345 µM); MIC [12]: 0.13 µg/mL (≈ 0.345 µM); MIC [13]: 0.06 µg/mL (≈ 0.159 µM); MIC [2]: 0.015 µg/mL (≈ 0.0398 µM); MIC [14]: 0.06 µg/mL (≈ 0.159 µM); MIC [15]: 0.03 µg/mL (≈ 0.0796 µM); MIC [16]: 0.013 µg/mL (≈ 0.0345 µM); MIC [17]: 0.25 µg/mL (≈ 0.663 µM); MIC [18]: 0.25 µg/mL (≈ 0.663 µM); MIC [19]: 0.013 µg/mL (≈ 0.0345 µM); MIC [20]: 0.25 µg/mL (≈ 0.663 µM); MIC [21]: 0.03 µg/mL (≈ 0.0796 µM)
23 | O=C(CCSc1nnc(-c2ccncc2)s1)Nc1c(Cl)cccc1Cl | 2.5 µM (≈ 1.03 µg/mL) | 0.59 µM (≈ 0.243 µg/mL) | 12.6 µM | 10.3 µM | 
24 | O=C(CCSc1nnc(-c2ccncc2)s1)Nc1ccc(Cl)cc1Cl | 2.5 µM (≈ 1.03 µg/mL) | 0.55 µM (≈ 0.226 µg/mL) | > 50 µM | > 50 µM | 
25 | CC(CSc1nnc(-c2ccncc2)s1)C(=O)Nc1ccccc1 (stereo unspecified) | 5 µM (≈ 1.78 µg/mL) | 2.26 µM (≈ 0.806 µg/mL) | > 50 µM | > 50 µM | 
26 | CC(CSc1nnc(-c2ccncc2)s1)C(=O)NCc1ccccc1 (stereo unspecified) | 5 µM (≈ 1.85 µg/mL) | 2.51 µM (≈ 0.93 µg/mL) | > 50 µM | > 50 µM | 
27 | CC(CSc1nnc(-c2ccncc2)s1)C(=O)NCc1ccccc1Cl (stereo unspecified) | 5 µM (≈ 2.02 µg/mL) | 1.89 µM (≈ 0.765 µg/mL) | > 50 µM | > 50 µM | 
28 | CC(CSc1nnc(-c2ccncc2)s1)C(=O)NCc1ccc(Cl)cc1 (stereo unspecified) |  | 1.68 µM (≈ 0.68 µg/mL) |  |  | 
29 | CC(CSc1nnc(-c2ccncc2)s1)C(=O)Nc1ccccc1Cl (stereo unspecified) | 5 µM (≈ 1.95 µg/mL) | 2.05 µM (≈ 0.801 µg/mL) | > 50 µM | > 50 µM | 
30 | CC(CSc1nnc(-c2ccncc2)s1)C(=O)Nc1ccc(Cl)cc1 (stereo unspecified) | 1.25 µM (≈ 0.489 µg/mL) | 0.22 µM (≈ 0.086 µg/mL) | > 50 µM | > 50 µM | 
31 | CC(CSc1nnc(-c2ccncc2)s1)C(=O)Nc1c(Cl)cccc1Cl (stereo unspecified) | 5 µM (≈ 2.13 µg/mL) | 1.55 µM (≈ 0.659 µg/mL) | > 50 µM | > 50 µM | 
32 | CC(CSc1nnc(-c2ccncc2)s1)C(=O)Nc1ccc(Cl)cc1Cl (stereo unspecified) | 5 µM (≈ 2.13 µg/mL) | 1.48 µM (≈ 0.63 µg/mL) | > 50 µM | > 50 µM | 
33 | S=c1[nH]nc(-c2ccncc2)s1 | 1.25 µM (≈ 0.244 µg/mL) | 0.2 µM (≈ 0.0391 µg/mL) | 19.7 µM | 14.7 µM | 
34 | NNC(=O)c1ccncc1 [ISONIAZID] |  | 0.03 µM (≈ 0.00411 µg/mL) |  |  | MIC [5]: 0.03 µg/mL (≈ 0.219 µM); MIC [6]: 0.03 µg/mL (≈ 0.219 µM); MIC [7]: 0.03 µg/mL (≈ 0.219 µM); MIC [8]: 0.03 µg/mL (≈ 0.219 µM); MIC [9]: 0.03 µg/mL (≈ 0.219 µM); MIC [10]: 0.06 µg/mL (≈ 0.438 µM); MIC [11]: 0.08 µg/mL (≈ 0.583 µM); MIC [12]: 0.06 µg/mL (≈ 0.438 µM); MIC [13]: 0.03 µg/mL (≈ 0.219 µM); MIC [2]: 0.03 µg/mL (≈ 0.219 µM); MIC [14]: 0.06 µg/mL (≈ 0.438 µM); MIC [15]: 0.03 µg/mL (≈ 0.219 µM); MIC [16]: 0.03 µg/mL (≈ 0.219 µM); MIC [17]: 0.19 µg/mL (≈ 1.39 µM); MIC [18]: 0.2 µg/mL (≈ 1.46 µM); MIC [19]: 0.03 µg/mL (≈ 0.219 µM); MIC [20]: 0.06 µg/mL (≈ 0.438 µM); MIC [21]: 0.03 µg/mL (≈ 0.219 µM)
